Test results taken from patent US20240324593A1, “OCTENIDINE COMPOSITIONS AND METHODS OF USE THEREOF” (Solventum Intellectual Properties Company, priority 2021, published 2024).
Structures can show the parent of a compound that is named as a salt.

Legend:
[1] = Homogeneity of the composition / precipitation of octenidine; format: physicochemical; details: aqueous composition of octenidine hydrochloride with enhancer
Procedure: Water and the carnitine enhancer (i.e., carnitine inner salt, carnitine tartrate tartaric acid, carnitine fumarate, or acetyl carnitine) to a 20 mL glass vial mixed with magnetic stirring. Octenidine hydrochloride (10% solution in 50:50 weight percentage methanol:water) was further added in the amount described in the tables below. The pH was adjusted using 1N HCL or NaOH. Glycerol (3 g) and Natrosol 250 HHX […] were added to a flask and mixed with a DAC 400 FVZ SPEEDMIXER dual asymmetric centrifuge mixer (from Flacktek, Inc Landrum, S.C.) at 2500 rpm for 30 seconds. The glycerol and Natrosol 250 HHX (1.3 g) were combined with the enhancer solution in a 40 gms Flack Tec cup and mixed for an additional 30 seconds at 2500 rpm. The resulting solutions were homogenous. Refer to Examples 1-36 below (total weight percentages of octenidine hydrochloride and carnitine enhancer within composition are provided in tables; glycerol about 8-9 wt %; Natrosol 250 HHX about 2-3 wt %; and water makes up the difference). The solutions of Examples 1-27 below were subjected to antimicrobial testing according to the method below.
As described above, aqueous compositions including only octenidine hydrochloride and a respective enhancer were also prepared (i.e., absent glycerol and Natrosol 250 HHX), similar to the formulations described in Tables 1-5. All compositions formed homogenous solutions. […]

[2] = Antimicrobial Efficiency Test, other antimicrobials with carnitine enhancers (Table 5); format: cell-based; details: with versus without carnitine enhancer
Procedure: Solutions of water, carnitine enhancer, and various other antimicrobials (i.e., chlorhexidine gluconate, benzalkonium chloride, polyhexamethylene biguanide) were prepared according to the procedure described immediately above.
Ex vivo porcine mucosa is transported to laboratory on ice pack and then trimmed and transferred in to RPMI 1640+2% PS media. A 5 mm biopsy punch is used to cut samples for assay. Remove most of the remaining muscle tissue with a fresh scalpel blade. Rinse 3× with 10±0.5 ml RPMI no ABX, no FCS. Transfer to incubator. Set up a 6 well plate with 1.5±0.2 mL RPMI (no ABX, no FCS) in each well and a 0.4 μm transwell insert. Transfer tissue explants mucosal side up to the insert (3 explants/well).
Passage overnight culture 1:10 into THB and return to shaking incubator for 2-3 hours. Remove 1 mL of passage culture from test tube and place in sterile microcentrifuge tube. Centrifuge (1±0.5 min at max speed) to pellet. Wash pellet with 1±0.1 mL RPMI, no ABX, no FCS. Centrifuge to pellet and re-suspend in 1±0.1 mL fresh RPMI. Check OD 600 to determine bacterial density and dilute as necessary to achieve ˜1E8 CFU/ml. Add bacteria: 2±1 μl per explant and return to incubator to infect 4±0.15 h.
Apply 50± μl of formulation per explant (mucosa side). Incubate at 37±2° C. for 24±0.5 h.
Remove tissue from transwells and place in appropriate neutralizer. Sonicate samples and vortex (30±5 second vortex, 2±0.1 minutes sonicate, and then 30±5 second vortex). Plate on Mannitol Salt Agar selective agar or Blood Agar at appropriate dilution and store dilutions at 4±2° C. The following day count plates and if TNTC, re-plate at higher dilution.

[3] = background statement; cited from earlier work
[4] = background statement; cited from earlier work; remark: listed apart in the source
[5] = background statement; cited from earlier work; remark: listed apart in the source
[6] = background statement; cited from earlier work; remark: listed apart in the source

C[N+](C)(C)C[C@H](O)CC(=O)[O-].O=C(O)/C=C/C(=O)O [carnitine fumarate, L-Carnitine fumarate]
homogenous solution or precipitation of octenidine [1]: resulted in the precipitation of octenidine

N=C(NCCCCCCNC(=N)NC(=N)Nc1ccc(Cl)cc1)NC(=N)Nc1ccc(Cl)cc1.O=C(O)[C@H](O)[C@@H](O)[C@H](O)[C@H](O)CO.O=C(O)[C@H](O)[C@@H](O)[C@H](O)[C@H](O)CO [chlorhexidine gluconate]
antimicrobial activity in the presence of carnitine enhancers (in words) [2]: performed better in the absence of carnitine enhancer

CCCCCCCCN=c1ccn(CCCCCCCCCCn2ccc(=NCCCCCCCC)cc2)cc1 [octenidine, octenidine hydrochloride]
antimicrobial efficacy relative to chlorhexidine [3]: 3-10 times | absorption through skin or mucous membranes [4]: not absorbed | contact dermatitis [5]: does not cause contact dermatitis | cytotoxicity relative to chlorhexidine [6]: less cytotoxic than chlorhexidine

benzalkonium chloride
antimicrobial activity in the presence of carnitine enhancers (in words) [2]: No effect

polyhexamethylene biguanide [polyhexamethylene biguanidine]
antimicrobial activity in the presence of carnitine enhancers (in words) [2]: performed better in the absence of carnitine enhancer
